Assay results reported in patent US11447486B2, “2-amino-benzimidazole derivatives and their use as 5-lipoxygenase and/or prostaglandin E synthase inhibitors” (INSTITUT PASTEUR KOREA, priority 2014, dated 2022).

Columns and labels:
Rat whole blood (RWB) = assay: LTB4 secretion assay in RWB (rat whole blood); format: cell-based; conditions: Rattus norvegicus
Method: Rat blood was drawn from caudal vena cava from male Sprague Dawley rat (6-9 weeks old) in vacuette coated with sodium heparin (Greiner bio-one, Cat #455051). The blood was pooled and diluted with RPMI (WelGENE, Cat #LM 011-05) to 1:1. The diluted blood was aliquoted into 96 well plate (200 ul per well) and compounds were added in dose response to a desired concentration ranging from 2.5 nM to 50 uM. After 15 min of pre-incubation at 37° C., calcium ionophore (A23187) was added to the final concentration of 10 uM. After 10 min of further incubation at 37° C., the LTB4 production was stopped by diluting the reaction mixture with ice cold PBS (1:4 dilutions). Cells were removed by centrifugation at 1000×g, 4° C. for 10 min, and the supernatant was transferred and then the quantification of LTB4 was done with Leukotriene B4 EIA kit (Cayman, Cat #520111) as instructed.

[1] = tested on: Rat basophilic leukemia (RBL) cells; assay: LTB4 secretion assay in RBL (rat basophilic leukemia cells); format: cell-based; conditions: Rattus norvegicus, RBL
How it was run: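 Cells seeded 2×10^4/well the day before, then pre-incubated 15 min at 37 °C in EMEM/0.5% FBS with compound (5 nM to 100 uM). Stimulation with 2.5 uM arachidonic acid plus 5 uM A23187 (final) for 10 min at 37 °C; LTB4 in supernatant quantified by EIA.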

human 5-LOX = molecular target: T1, human 5-LOX (Homo sapiens, UniProt P09917); assay: 5-LOX enzyme activity, fluorescence method (5-HPETE, H2DCFDA); format: biochemical; conditions: read-out: 5-LO (IC50)
T1 construct: purchased Cayman 60402; host or cells: insect cells (lysate)
T1 sequence (P09917 1-674): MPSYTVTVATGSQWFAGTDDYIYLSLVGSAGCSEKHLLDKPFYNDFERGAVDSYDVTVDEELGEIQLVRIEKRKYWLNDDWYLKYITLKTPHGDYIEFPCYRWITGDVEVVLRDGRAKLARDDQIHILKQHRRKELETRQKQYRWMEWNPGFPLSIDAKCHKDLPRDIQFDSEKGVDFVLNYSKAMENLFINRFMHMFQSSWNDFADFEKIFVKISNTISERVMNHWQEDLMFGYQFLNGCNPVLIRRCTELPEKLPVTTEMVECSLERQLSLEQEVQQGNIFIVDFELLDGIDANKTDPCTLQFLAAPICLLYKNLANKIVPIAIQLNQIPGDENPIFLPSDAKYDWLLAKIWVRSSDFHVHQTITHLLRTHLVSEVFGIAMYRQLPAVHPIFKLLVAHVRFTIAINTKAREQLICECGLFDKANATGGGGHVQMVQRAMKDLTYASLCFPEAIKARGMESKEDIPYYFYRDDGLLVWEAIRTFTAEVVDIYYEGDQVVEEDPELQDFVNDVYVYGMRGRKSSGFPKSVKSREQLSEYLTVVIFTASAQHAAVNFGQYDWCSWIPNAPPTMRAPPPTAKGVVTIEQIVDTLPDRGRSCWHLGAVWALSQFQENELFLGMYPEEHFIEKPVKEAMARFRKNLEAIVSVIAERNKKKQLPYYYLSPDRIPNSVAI
How it was run: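 Compound (0.5 nM to 10 uM) pre-incubated 5 min with enzyme; reaction started with ATP (100 uM final) and arachidonic acid (3 uM final). All steps at room temperature, fluorescence read-out.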

| Structure (SMILES) | EC50 (Rat whole blood (RWB)) [µM] | EC50 [1] [µM] | IC50 (human 5-LOX) [µM] |
| --- | --- | --- | --- |
| Cn1c(NCc2ccc(Oc3ccc(Cl)cn3)cn2)nc2ccc(NC3COC3)cc21 [Compound 300] | 10 to 20 | < 10 | < 1 |
| CN(C)c1nc2ccc(N3CCC(Oc4ccc(OC(F)(F)F)cc4)C3)cc2[nH]1 (stereo not drawn) [Compound 105] | > 20 | < 10 | < 1 |
| Cn1c(NCCOc2ccc(OC(F)(F)F)c(Cl)c2)nc2cc(N)ccc21 [Compound 59] | > 20 | < 10 | < 1 |
| CN(C)c1nc2cc(N3CCC(Oc4ccncc4)C3)ccc2[nH]1 (stereo not drawn) [Compound 202] | > 20 | < 10 | < 1 |
| CN(C)c1nc2ccc(N3CCC(C(=O)c4ccc(OC(F)(F)F)cc4)C3)cc2[nH]1 (stereo not drawn) [Compound 190] | > 20 | < 10 | < 1 |
| CN(C)c1nc2ccc(NCc3ccc(-c4ccc(Cl)cn4)cc3)cc2[nH]1 [Compound 197] | > 20 | < 10 | < 1 |
| Cc1cc(Oc2ccc(Cl)cn2)ccc1CNc1nc2ccc(NC3COC3)cc2n1C [Compound 291] | 10 to 20 | < 10 | < 1 |
| Cn1nc(Nc2cc(F)c3nc(NCc4ccc(Oc5ncc(Cl)cn5)cc4)n(C)c3c2)cc1C(F)(F)F [Compound 524] | 10 to 20 | < 10 | > 10 |
| Nc1ccc2[nH]c(N3CCC(Oc4ccc(Cl)cn4)C3)nc2c1 (stereo not drawn) [Compound 160] | > 20 | < 10 | < 1 |
| Cc1cc(Nc2ccc3nc(NCc4ccc(Oc5ccc(OC(F)(F)F)cn5)cc4)n(C)c3c2)n[nH]1 [Compound 496] | < 10 | < 10 | < 1 |
| Cc1cc(Nc2cnc3nc(NCc4ccc(Oc5ncc(Cl)cn5)cc4)n(C)c3c2)n[nH]1 [Compound 497] | > 20 | > 20 | 1 to 10 |
| Cc1ccc(Oc2ccc(CNc3nc4ccc(N)cc4n3C)cc2)nn1 [Compound 311] | < 10 | > 20 | < 1 |
| CC(C)(C)Nc1ccc2nc(N)n(CCOc3ccc(OC(F)(F)F)cc3)c2c1 [Compound 93] | > 20 | < 10 | < 1 |
| Cc1cc(Nc2ccc3nc(NCc4ccc(Oc5ncc(OC(F)(F)F)cn5)cc4)n(C)c3c2)n[nH]1 [Compound 482] | < 10 | < 10 | < 1 |
| CCn1c(NCc2ccc(Oc3ncc(C(F)(F)F)cn3)cc2)nc2ccc(Nc3ccn(C)n3)cc21 [Compound 525] | < 10 | < 10 | < 1 |
| Cn1c(NCc2cc(Cl)c(Oc3ncc(Cl)cn3)cc2Cl)nc2ccc(NC3COC3)cc21 [Compound 433] | < 10 | 10 to 20 | < 1 |
| Cn1c(NCc2ccc(Oc3cnc(Cl)nc3)cc2)nc2ccc(NC3COC3)cc21 [Compound 341] | < 10 | 10 to 20 | < 1 |
| CC(C)(C)Nc1nc2cc(N)ccc2n1CCOc1ccc(OC(F)(F)F)cc1 [Compound 66] | > 20 | < 10 | < 1 |
| CCn1c(NCc2ccc(Oc3ncc(Cl)cn3)cc2)nc2c(F)cc(NC3COC3)cc21 [Compound 555] | 10 to 20 | 10 to 20 | < 1 |
| COCCNc1nc2ccc(N3CCC(Oc4ccc(OC(F)(F)F)cc4)C3)cc2[nH]1 (stereo not drawn) [Compound 148] | > 20 | < 10 | < 1 |
| Cc1[nH]nc(Nc2ccc3nc(NCc4ccc(Oc5ncc(Cl)cn5)cc4)n(C)c3c2)c1C [Compound 474] | < 10 | < 10 | < 1 |
| COc1cc(Oc2ccc(Cl)cn2)ccc1CNc1nc2ccc(NC3COC3)cc2n1C [Compound 328] | < 10 | < 10 | < 1 |
| Nc1nc2cc(NCCOc3ccc(OC(F)(F)F)cc3)ccc2[nH]1 [Compound 75] | > 20 | 10 to 20 | < 1 |
| CC(Nc1ccc2[nH]c(N(C)C)nc2c1)c1ccc(Oc2ccc(OC(F)(F)F)cc2)cc1 (stereo not drawn) [Compound 127] | > 20 | < 10 | < 1 |
| Cc1nnc(Nc2ccc3nc(NCc4ccc(Oc5ncc(Cl)cn5)cc4)n(C)c3c2)o1 [Compound 498] | < 10 | > 20 | > 10 |
| Cn1c(NCc2c(F)cc(Oc3ncc(Cl)cn3)cc2F)nc2ccc(N)cc21 [Compound 430] | < 10 | < 10 | < 1 |
| Nc1ccc2c(c1)nc(N1CCCC1)n2CCOc1ccc(OC(F)(F)F)cc1 [Compound 55] | > 20 | < 10 | 1 to 10 |
| Cn1c(NCc2ccc(Oc3ncc(Cl)cn3)cc2)nc2ccc(Nc3ccccn3)cc21 [Compound 447] | < 10 | < 10 | 1 to 10 |

The next lines start with the values.

| EC50 (Rat whole blood (RWB)) [µM] | EC50 [1] [µM] | IC50 (human 5-LOX) [µM] | Structure (SMILES) |
| --- | --- | --- | --- |
| < 10 | < 10 | < 1 | OCCNc1nc2ccc(NC3COC3)cc2n1Cc1ccc(Oc2ccc(Cl)cn2)cc1 [Compound 251] |
| < 10 | < 10 | < 1 | Cn1c(NCc2ccc(Oc3ncc(C(F)(F)F)cn3)cc2)nc2ccc(N)cc21 [Compound 373] |
| < 10 | < 10 | < 1 | Cn1ccc(Nc2ccc3nc(NCc4ccc(Oc5ccc(Cl)cn5)cc4)n(C)c3c2)n1 [Compound 413] |
| < 10 | < 10 | < 1 | OCCNc1nc2ccc(NC3COC3)cc2n1Cc1ccc(Oc2ccc(Cl)cc2)cc1 [Compound 204] |
| < 10 | < 10 | < 1 | Nc1ccc2[nH]c(NCc3ccc(Oc4ccc(F)c(F)c4)cc3)nc2c1 [Compound 113] |
| < 10 | < 10 | < 1 | CN(C)c1nc2ccc(NCc3ccc(OCc4ncco4)cc3)cc2[nH]1 [Compound 233] |
| < 10 | < 10 | < 1 | Nc1ccc2[nH]c(NCc3ccc(Oc4ccc(OC(F)(F)F)cc4)cc3)nc2c1 [Compound 88] |
| < 10 | < 10 | < 1 | CC(C)(O)CNc1nc2ccc(N)cc2n1Cc1ccc(Oc2ccc(Cl)cc2)cc1 [Compound 165] |
| < 10 | < 10 | < 1 | CCC(Nc1nc2ccc(NC3COC3)cc2n1C)c1ccc(Oc2ncc(C(F)(F)F)cn2)cc1F (stereo not drawn) [Compound 543] |
| < 10 | < 10 | < 1 | Cn1c(NCc2ccc(Oc3ccc(Cl)cn3)cc2)nc2ccc(Nc3cc[nH]n3)cc21 [Compound 449] |
| < 10 | < 10 | < 1 | Clc1ccc(Oc2ccc(CNc3nc4cc(NCc5ccccn5)ccc4[nH]3)cc2)cc1 [Compound 149] |
| < 10 | < 10 | < 1 | Nc1ccc2nc(NCc3ccc(C(=O)c4ccccc4)cc3)[nH]c2c1 [Compound 106] |
| < 10 | < 10 | < 1 | Cn1c(NCc2ccc(Oc3cnc(N)nc3)cc2)nc2ccc(NC3COC3)cc21 [Compound 369] |
| < 10 | < 10 | < 1 | Nc1ccc2nc(NCc3ccc(C(=O)c4ccc(Cl)cc4)cc3)[nH]c2c1 [Compound 130] |
| < 10 | < 10 | < 1 | Nc1ccc2[nH]c(NCc3ccc(Cl)cc3F)nc2c1 [Compound 30] |
| < 10 | < 10 | < 1 | Nc1ccc2nc(N)n(Cc3ccc(Oc4ccc(Cl)nc4)cc3)c2c1 [Compound 238] |
| < 10 | < 10 | < 1 | Nc1ccc2c(c1)nc(N)n2Cc1ccc(Oc2ccc(Cl)cn2)cc1 [Compound 199] |
| < 10 | < 10 | > 10 | CCn1c(NCc2ccc(Oc3ncc(Cl)cn3)cc2F)nc2ccc(Nc3cc(C(F)(F)F)n(C)n3)cc21 [Compound 506] |
